Some test systems named below: NCI-H226 lung; OVCAR-5 ovarian; HL-60(TB) leukemia; NCI/ADR-RES ovarian; MCF7 breast; CAKI-1 renal; A498 renal; SW-620 colon; CCRF-CEM leukemia; SF-539 CNS.
Common to all, as to assay: NCI anticancer screen, dose series, 48 h

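All cell lines were grown in 96-well plates and treated with compound for 48 hours. At the GI50, growth is halved. The concentration for full growth arrest is given as TGI.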 A value given as a limit tells only on which side of the number the result lay.

`CC(C(=O)NCCNC(=O)CCC(=O)N(C)O)C(=O)NCCNC(=O)CCC(=O)N(C)O`: the TGI in the assay on NCI-H226 lung, in the assay with OVCAR-5 ovarian, with HL-60(TB) leukemia, in the assay with NCI/ADR-RES ovarian, in the assay with MCF7 breast and in the assay with CAKI-1 renal was above 100 µM in each case. For the same compound, the TGI in the assay with A498 renal, in the assay with SW-620 colon and in the assay on CCRF-CEM leukemia was above 100 µM each time.

For `COc1ccc(N2CN(C)CSC2=S)cc1`, the TGI with OVCAR-5 ovarian, in the assay with HL-60(TB) leukemia, with NCI/ADR-RES ovarian, in the assay with MCF7 breast, in the assay with SF-539 CNS and in the assay with CAKI-1 renal was above 100 µM each time. Further, the TGI in the assay with A498 renal is above 100 µM; in the assay with SW-620 colon, above 100 µM; with CCRF-CEM leukemia, 87.2 µM.

On to `CC(C)(C)c1cc(C(=O)C2Cc3ccccc3C(=O)O2)cc(C(C)(C)C)c1O` (stereo unspecified), for which the TGI amounted to 35.5 µM in the assay on NCI-H226 lung; 31.8 µM with OVCAR-5 ovarian; 35 µM in the assay with HL-60(TB) leukemia; 50.5 µM in the assay with NCI/ADR-RES ovarian; 38.6 µM with MCF7 breast; 31.7 µM in the assay with SF-539 CNS. Further, the TGI in the assay with CAKI-1 renal is 52.5 µM; in the assay on A498 renal, 26.7 µM; in the assay with SW-620 colon, 50.4 µM; in the assay on CCRF-CEM leukemia, 34.7 µM.

Take `O=C(OCC1CCCN2CCCCC12)c1cccnc1` (stereo unspecified): the TGI in the assay on NCI-H226 lung, in the assay with HL-60(TB) leukemia, in the assay on NCI/ADR-RES ovarian, with MCF7 breast, with SF-539 CNS and in the assay on CAKI-1 renal was above 100 µM throughout. Further, the TGI with A498 renal, with SW-620 colon and in the assay with CCRF-CEM leukemia was above 100 µM each time.

As for `Nc1ncnc2c1ncn2C1OC(CO)C(O)C1NS(=O)(=O)c1ccccc1` (stereo unspecified), the TGI in the assay on NCI-H226 lung, in the assay on OVCAR-5 ovarian, in the assay on HL-60(TB) leukemia, in the assay on NCI/ADR-RES ovarian, in the assay with MCF7 breast and with SF-539 CNS was above 100 µM throughout. Moreover, the TGI in the assay on CAKI-1 renal, with A498 renal, with SW-620 colon and in the assay on CCRF-CEM leukemia was above 100 µM in each case.

Regarding `COc1ccc(C(=O)c2c(-c3ccccc3NC(=O)C(F)(F)F)[nH]c3ccccc23)cc1`, the TGI in the assay with NCI-H226 lung is 37.9 µM; with OVCAR-5 ovarian it was 25.5 µM; in the assay with HL-60(TB) leukemia, 13.6 µM; in the assay on NCI/ADR-RES ovarian, 28.8 µM; with MCF7 breast it was 17.2 µM; in the assay on SF-539 CNS it was 4.41 µM. Further, the TGI with CAKI-1 renal stood at 28.6 µM; in the assay with A498 renal, 4.7 µM; with SW-620 colon, 16.7 µM; in the assay with CCRF-CEM leukemia, 15.2 µM.

Turning to `CC(=O)NNC(=S)/N=C\c1c(O)c2ccccc2oc1=O`, the TGI in the assay on NCI-H226 lung, with OVCAR-5 ovarian, in the assay on HL-60(TB) leukemia, in the assay with NCI/ADR-RES ovarian, with MCF7 breast and in the assay with SF-539 CNS was above 100 µM each time. In addition, the TGI in the assay with CAKI-1 renal, in the assay with A498 renal, with SW-620 colon and in the assay on CCRF-CEM leukemia was above 100 µM in each case.

On to `Oc1cc(O)c2c(c1)O[C@H](c1cc(O)c(O)c(O)c1)[C@@H](O)C2`, for which the TGI in the assay on NCI-H226 lung is 86.5 µM; in the assay on OVCAR-5 ovarian it was 34.8 µM; with HL-60(TB) leukemia, 45.4 µM; in the assay with NCI/ADR-RES ovarian, above 100 µM; with MCF7 breast, 35.2 µM; in the assay with SF-539 CNS it was 40.7 µM. Further, the TGI in the assay on CAKI-1 renal is above 100 µM; with A498 renal, above 100 µM; with SW-620 colon, 32.7 µM; with CCRF-CEM leukemia, 43.4 µM.

Take `CC(C)NCC(O)c1ccc(O)c2ncccc12` (stereo unspecified): the TGI was above 100 µM in the assay with NCI-H226 lung; above 100 µM with OVCAR-5 ovarian; above 100 µM in the assay on HL-60(TB) leukemia; 92.5 µM in the assay with NCI/ADR-RES ovarian; above 100 µM in the assay with MCF7 breast; above 100 µM with SF-539 CNS. The TGI in the assay with CAKI-1 renal, with A498 renal and in the assay on SW-620 colon was above 100 µM each time.

For the compound `Oc1cc(Cl)cc2cc(Cl)cnc12`, the TGI with NCI-H226 lung was 92.2 µM; in the assay with OVCAR-5 ovarian, above 100 µM; with HL-60(TB) leukemia it was 0.902 µM; in the assay on NCI/ADR-RES ovarian, 6.67 µM; with MCF7 breast it was 54.6 µM; in the assay on SF-539 CNS, above 100 µM. Further, the TGI was 57.7 µM in the assay on CAKI-1 renal, 34.5 µM in the assay on A498 renal, above 100 µM in the assay with SW-620 colon and 6.37 µM in the assay on CCRF-CEM leukemia.

Turning to `C=C1C(=O)[C@]23C[C@H]1C[C@@H](O)[C@H]2[C@]1(COC3=O)[C@@H](OC(C)=O)CC[C@@](C)(COC(C)=O)[C@H]1C=O`, the TGI in the assay with NCI-H226 lung was 19 µM; in the assay with OVCAR-5 ovarian it was above 50 µM; with HL-60(TB) leukemia it was 16.6 µM; with NCI/ADR-RES ovarian it was above 50 µM; with MCF7 breast it was above 50 µM; in the assay with CAKI-1 renal, 18.8 µM. Further, the TGI is above 50 µM with A498 renal, 18.7 µM in the assay with SW-620 colon and 15.1 µM with CCRF-CEM leukemia.

Turning to `C=CCNc1nc(O)c(/C=C2\C=Nc3ncccc32)s1`, the GI50 is 1.99 µM in the assay on NCI-H226 lung; 2.66 µM in the assay on OVCAR-5 ovarian; 2.1 µM with HL-60(TB) leukemia; 5.05 µM in the assay with NCI/ADR-RES ovarian; 2.2 µM in the assay on MCF7 breast; 0.524 µM in the assay on SF-539 CNS. The values for the GI50 in the assay on CAKI-1 renal, in the assay on A498 renal and with SW-620 colon were 2.22 µM, 1.5 µM and 2.13 µM, respectively. Besides, the TGI is 21.6 µM in the assay on NCI-H226 lung; above 100 µM in the assay on OVCAR-5 ovarian; 5.27 µM in the assay on HL-60(TB) leukemia; above 100 µM in the assay with NCI/ADR-RES ovarian; above 100 µM in the assay on MCF7 breast; 2.06 µM in the assay with SF-539 CNS. Further, the TGI with CAKI-1 renal was above 100 µM; in the assay with A498 renal, 3.7 µM; in the assay with SW-620 colon, 9.25 µM.

As to `N/C(=N\NC(=O)c1nc2ccccc2s1)c1ccccn1`, the TGI in the assay on OVCAR-5 ovarian is 65.7 µM; in the assay on HL-60(TB) leukemia, 23.4 µM; in the assay on NCI/ADR-RES ovarian it was 15.5 µM; with MCF7 breast, above 63.7 µM; in the assay with SF-539 CNS, 15.6 µM; with A498 renal, 36.1 µM. The TGI was above 100 µM with SW-620 colon and above 45.6 µM with CCRF-CEM leukemia.

(Values after PubChem BioAssay (NCI).)
